# Measurements published in patent US5962525A, “6,7-disubstituted-2-aminotetralines active as immunomodulators and pharmaceutical compositions containing same” (Sigma-Tau, priority 1990, dated 1999).
# Where “and” joins values, the source holds several entries; their conditions need not be identical. Equal entries are not always repeated.
# What was measured:
# [1] = test system: murine peritoneal macrophages; tumor targets Daudi and CEM-CM3; assay: "In vitro-ex vivo" effect on the cytotoxic activity of peritoneal macrophages (lysis of 3H-TdR labelled tumor cells); parameters: species or system mouse (B6 D2 F1, C57B16); tumor targets human
# Procedure: Assessment of the "in vitro-ex vivo" effect of ST 557, ST 563, ST 570 and ST 626 on the cytotoxic activity of peritoneal macrophages (M)
# Male hybrid B6 D2 F1 aged 7-9 weeks and male inbred mice C57B16 aged 8 weeks were used (4 animals/group).
# All the compounds were administered i.p. (25 mg/kg/day). ST 557 was also administered per os (100 mg/kg/day) from day -5 to day -1 (peritoneal exudate cell [PEC] harvesting at day 0).
# PEC were obtained from sacrificed animals, 24 hours following the end of treatment, via repeated washings of the abdominal cavity. The peritoneal exudates obtained from each group of animals were pooled.
# The macrophage percentage was assessed by counting in a Burker chamber; cell suspensions (concentration=2×10^6 M/ml) were prepared.
# The macrophage cytotoxic activity was assessed using the following two tumor cell lines as targets: Daudi, derived from a human lymphoblastoma and CEM-CM3, derived from human lymphoblastic leukemia (both lines are disclosed in ATCC--American Type Culture Collection--Cell lines of hybridoma, 5th Ed.--1985).
# The experimental procedure is substantially the same as that described by Herscowitz, H. B. (1981)--Manual of Macrophage Methodology. Dekker M, Editor.
# In particular, samples of cell lines were labelled with ^3 H-TdR (tritiated thymidine) and their concentration was adjusted to 5×10^4 cells/ml. They were then added to the macrophage preparations (using 96-well microtiter plates) and the volumes were adjusted so as to obtain Effector (macrophage)/Target (tumor cell) ratios of 20:1; 40:1 and 80:1 in an overall volume of 0.3 ml/well.
# Three replicates for each sample were prepared; after 48 and 72 hours of incubation at 37° C. in 5% CO2. Aliquots of 0.1 ml of supernatant were drawn out from each well and counted in a β-counter.
# The macrophage cytotoxic activity results in a tumor cell lysis that causes the release of the radioactivity incorporated by the cells into the supernatant.
# Based on the βeta-counter data (in cpm) this activity is expressed as the percentage of radioactivity released following lysis with respect to the radioactivity incorporated by the tumor cells.
# The relevant formulas are as follows: [formula]
# The measures carried out on the samples account for a certain degree of lysis occurring spontaneously in cultured tumor cells not exposed to macrophages. Total radioactivity incorporated by the tumor cells is calculated by conducting a lysis with 1% SDS in distilled water.
# [2] = test system: murine peritoneal exudate cells (PEC); assay: "In vitro-ex vivo" effect on the phagocytic activity of exudate peritoneal cells (SRBC phagocytosis); parameters: species or system mouse (B6 D2 F1); conditions: for SRBC per phagocytizing cell: average number of SRBC in each phagocyte
# Procedure: Assessment of the "in vitro-ex vivo" effect of ST 557, ST 563, ST 564, ST 570, ST 608 and ST 626 on the phagocytic activity of exudate peritoneal cells (PEC)
# Male B6 D2 F1 mice aged 6-8 weeks (5 animals each group) were used.
# The compounds were administered i.p. (25 mg/kg/day), ST 557, ST 563 and ST 626 were also administered per os (100 mg/kg/day) from day -5 to day -1 (PEC harvesting at day 0).
# The experimental procedure was substantially the same as that described by Williams et al., in "Methods in Immunology and Immunochemistry", Acad. Press. 5: 261 (1976).
# In particular, 24 hours following the end of the treatment, PECs from each experimental group were harvested, pooled and their concentration was adjusted to 4×10^6 cells/ml.
# To volumes of 250 μl of each PEC sample were added equal volumes of 0.4% SRBC (Sheep Red Blood Cells) opsonized with hyperimmune serum.
# The samples (duplicate) were incubated for 1 hour and then subjected to hypotonic shock in order to remove the non-phagocytized SRBC. After restoring the osmolarity, the phagocytes were cytocentrifuged, stained with a differential dye and observed under the microscope.
# The results were expressed as:
# (a) percentage of cells that have phagocytized with respect to 100 phagocytizing cells;
# (b) total number of phagocytized SRBC;
# (c) average number of SRBC in each phagocyte.
# splenocytes = assay: "In vitro-ex vivo" effect on the mytogen (PHA, LPS)-induced splenocyte proliferation in mice; parameters: species or system mouse (B6 D2 F1); conditions: 25 mg/kg/day i.p.
# Procedure: Assessment of the "in vitro-ex vivo" effect of ST 557, ST 563, ST 608 on the mytogen (PHA, LPS)-induced splenocyte proliferation in mice
# Male B6 D2 F1 mice aged 6-10 weeks (4 animals per group) were used.
# The compounds were administered i.p. 25 mg/kg/day, from day -5 to -1 (spleen excision at day 0).
# PHA (active on T lymphocytes) and LPS (active on B lymphocytes) were used as mytogens. Each mytogen was tested at three different concentrations (suboptimal, optimal, superoptimal): 0.5, 4 and 6 mcg/ml/well and 0.5, 150 and 500 mcg/ml/well, respectively.
# The experimental procedure was conducted substantially as described by Kirchner et al., "Splenic suppressor macrophages induced in mice by injection of C. parvum", J. Immunol., 1975, 115: 1212.
# In particular, the cell suspensions obtained from the spleens of the animals of the same group were pooled and the cell concentration was adjusted to 5×10^6 cells/ml.
# To volumes of 0.1 ml of each sample, equal volumes of the mytogen preparations were added so as to obtain, for each mytogen, the previously indicated final concentrations.
# Each sample was prepared in triplicate in U-bottom microtiters. A control, to which 0.1 ml of medium were added instead of the mytogen, was also prepared. The control permits the extent of spontaneous proliferation in the absence of stimulation to be assessed.
# The samples were incubated at 37° C. for 48 hours and then they were pulsed with 20 μl ^3 H-TdR (25 μCi/ml).
# After 18 hours of further incubation, the cells were collected on filters and counted in a beta-counter.
# The results of each sample are expressed by calculating the value of the area under the curve (AUC) obtained by plotting the values of the incorporated radioactivity (in cpm) versus the various concentrations of each mytogen.
# In addition to AUC, the stimulation index (SI) is also considered, that is defined as follows. [formula]
# [3] = 48 hours, E/T 20:1, 25 mg/kg/day i.p., B6 D2 F1
# [4] = 48 hours, E/T 20:1, 25 mg/kg/day i.p., repeated experiment, B6 D2 F1
# [5] = 48 hours, E/T 40:1, 25 mg/kg/day i.p., B6 D2 F1
# [6] = 48 hours, E/T 40:1, 25 mg/kg/day i.p., repeated experiment, B6 D2 F1
# [7] = 48 hours, E/T 80:1, 25 mg/kg/day i.p., repeated experiment, B6 D2 F1
# [8] = 72 hours, E/T 20:1, 25 mg/kg/day i.p., B6 D2 F1
# [9] = 72 hours, E/T 20:1, 25 mg/kg/day i.p., repeated experiment, B6 D2 F1
# [10] = 72 hours, E/T 40:1, 25 mg/kg/day i.p., B6 D2 F1
# [11] = 72 hours, E/T 40:1, 25 mg/kg/day i.p., repeated experiment, B6 D2 F1
# [12] = 72 hours, E/T 80:1, 25 mg/kg/day i.p., repeated experiment, B6 D2 F1
SMILES,"% lysis of tumor target [1, 3]","% lysis of tumor target [1, 4]","% lysis of tumor target [1, 5]","% lysis of tumor target [1, 6]","% lysis of tumor target [1, 7]","% lysis of tumor target [1, 8]","% lysis of tumor target [1, 9]","% lysis of tumor target [1, 10]","% lysis of tumor target [1, 11]","% lysis of tumor target [1, 12]",Fagocytizing cells ([2]; 25 mg/kg/day i.p.),Total n° SRBC phagocytized ([2]; 25 mg/kg/day i.p.),SRBC per phagocytizing cell ([2]; 25 mg/kg/day i.p.),Fagocytizing cells ([2]; 100 mg/kg/day os),Total n° SRBC phagocytized ([2]; 100 mg/kg/day os),SRBC per phagocytizing cell ([2]; 100 mg/kg/day os),S.I. (stimulation index) (splenocytes; LPS),S.I. (stimulation index) (splenocytes; PHA),also measured
"COc1cc2c(cc1OC)CC(N(CC1CC1)CC1CC1)CC2 (centres unmarked) [ST 557, 2-[(N,N-dicyclopropylmethyl)amino]-6,7-dimethoxytetraline]",10.7 ± 0.2%,7.8 ± 0.7%,24.6 ± 0.8%,13.2 ± 0.7%,32.4 ± 0.9%,13.1 ± 0.3%,13.0 ± 0.7%,29.3 ± 0.9%,18.7 ± 0.9%,45.3 ± 0.9%,29.6%,93.6,3.20,59.0%,190.5,3.23,1.22 and 1.15,1.27 and 1.13 and 1.73,"% lysis of tumor target ([1]; 48 hours, E/T 20:1, 25 mg/kg/day i.p., repeated experiment, C57B16 mice): 10.8 ± 0.6%; % lysis of tumor target ([1]; 48 hours, E/T 20:1, 100 mg/kg/day os, B6 D2 F1): 22.7 ± 0.6%; % lysis of tumor target ([1]; 48 hours, E/T 40:1, 25 mg/kg/day i.p., repeated experiment, C57B16 mice): 16.4 ± 0.8%; % lysis of tumor target ([1]; 48 hours, E/T 40:1, 100 mg/kg/day os, B6 D2 F1): 30.1 ± 0.7%; % lysis of tumor target ([1]; 48 hours, E/T 80:1, 25 mg/kg/day i.p., repeated experiment, C57B16 mice): 28.3 ± 0.5%; % lysis of tumor target ([1]; 48 hours, E/T 80:1, 100 mg/kg/day os, B6 D2 F1): 29.7 ± 0.9%; % lysis of tumor target ([1]; 72 hours, E/T 20:1, 25 mg/kg/day i.p., repeated experiment, C57B16 mice): 11.9 ± 0.7%; % lysis of tumor target ([1]; 72 hours, E/T 20:1, 100 mg/kg/day os, B6 D2 F1): 29.7 ± 1.2%; % lysis of tumor target ([1]; 72 hours, E/T 40:1, 25 mg/kg/day i.p., repeated experiment, C57B16 mice): 11.9 ± 0.4%; % lysis of tumor target ([1]; 72 hours, E/T 40:1, 100 mg/kg/day os, B6 D2 F1): 41.5 ± 1.3%; % lysis of tumor target ([1]; 72 hours, E/T 80:1, 25 mg/kg/day i.p., repeated experiment, C57B16 mice): 30.9 ± 0.1%; % lysis of tumor target ([1]; 72 hours, E/T 80:1, 100 mg/kg/day os, B6 D2 F1): 44.4 ± 0.3%; AUC (area under curve, incorporated radioactivity vs mytogen concentration) (splenocytes; LPS): 10312 ± 1253 ×10^-3 and 18914 ± 389 ×10^-3"
"COc1cc2c(cc1OC)CC(NCC(O)c1ccc(C)cc1)CC2 (centres unmarked) [ST 563, 2-[(N-2-hydroxy-2-(4-methylphenyl)ethyl)amino]-6,7-dimethoxytetraline]",9.1 ± 0.2%,7.7 ± 0.6%,15.4 ± 0.2%,9.4 ± 0.7%,16.0 ± 1.0%,11.0 ± 0.1%,12.7 ± 0.5%,18.3 ± 0.1%,14.9 ± 0.9%,22.2 ± 1.4%,42.5%,146.0,3.40,58.5%,164.0,2.80,1.13 and 0.95,1.09 and 1.28 and 1.12,"AUC (area under curve, incorporated radioactivity vs mytogen concentration) (splenocytes; PHA): 179 ± 3 ×10^-3 and 256 ± 21 ×10^-3 and 139 ± 5 ×10^-3"
